Test results published in PubChem BioAssay AID1963852 (Molecular Pharmacology Branch, DTP, NCI, 2024).

System: 282377-053-R-J1-PDC complex spheroid viability
Assay: Anticancer human tumor 282377-053-R-J1-PDC patient-derived colon adenocarcinoma cell line growth inhibition [POLQ]
Conditions: for IC50: curve of first compound; for viability, T/C: stronger effect = lower value; active means viability on the fitted dose curve at most 10% of control; inactive means the rest
Outline: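 Patient-derived tumour cells were co-cultured with HUVEC and mesenchymal stem cells as multicellular spheroids at 37 °C. They were treated with POLQ inhibitors (novobiocin, ART-558, RP6685) alone or combined with other agents. Top concentrations were at or near clinical Cmax (otherwise 10 microM; SN-38 at 1 microM), decreasing in half-log steps.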

[1] = second compound 0.0316 µM, first compound 0.0316 µM
[2] = second compound 0.0316 µM, first compound 0.1 µM
[3] = second compound 0.0316 µM, first compound 0.316 µM
[4] = second compound 0.0316 µM, first compound 1 µM
[5] = second compound 0.0316 µM, first compound 3.16 µM
[6] = second compound 0.0316 µM, first compound 10 µM
[7] = second compound 0.1 µM, first compound 0.0316 µM
[8] = second compound 0.1 µM, first compound 0.1 µM
[9] = second compound 0.1 µM, first compound 0.316 µM
[10] = second compound 0.1 µM, first compound 1 µM
[11] = second compound 0.1 µM, first compound 3.16 µM
[12] = second compound 0.1 µM, first compound 10 µM
[13] = second compound 0.316 µM, first compound 0.0316 µM
[14] = second compound 0.316 µM, first compound 0.1 µM
[15] = second compound 0.316 µM, first compound 0.316 µM
[16] = second compound 0.316 µM, first compound 1 µM
[17] = second compound 0.316 µM, first compound 3.16 µM
[18] = second compound 0.316 µM, first compound 10 µM
[19] = second compound 1 µM, first compound 0.0316 µM
[20] = second compound 1 µM, first compound 0.1 µM
[21] = second compound 1 µM, first compound 0.316 µM
[22] = second compound 1 µM, first compound 1 µM
[23] = second compound 1 µM, first compound 3.16 µM
[24] = second compound 1 µM, first compound 10 µM
[25] = second compound 3.16 µM, first compound 0.0316 µM
[26] = second compound 3.16 µM, first compound 0.1 µM
[27] = second compound 3.16 µM, first compound 0.316 µM
[28] = second compound 3.16 µM, first compound 1 µM
[29] = second compound 3.16 µM, first compound 3.16 µM
[30] = second compound 3.16 µM, first compound 10 µM
[31] = second compound 10 µM, first compound 0.0316 µM
[32] = second compound 10 µM, first compound 0.1 µM
[33] = second compound 10 µM, first compound 0.316 µM
[34] = second compound 10 µM, first compound 1 µM
[35] = second compound 10 µM, first compound 3.16 µM
[36] = second compound 10 µM, first compound 10 µM
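Further: spheroids exposed to compounds for seven days.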
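Wherever viability, T/C is given: 100% = DMSO vehicle control viability.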

CCc1cc2c(N3CCc4c(cc(Cn5ccnc5)cc4-c4cn(C)nc4C(F)(F)F)C3=O)cc(C)nc2c(OC)n1 + Cc1cccc(N(C)C(=O)C2C(O)CCN2c2nc(C)cc(C(F)(F)F)c2C#N)c1
inactive: viability, T/C [1] 104% | viability, T/C [2] 99.8% | viability, T/C [3] 89.7% | viability, T/C [4] 103% | viability, T/C [5] 108% | viability, T/C [6] 134% | viability, T/C [7] 85.9% | viability, T/C [8] 102% | viability, T/C [9] 91.2% | viability, T/C [10] 91.2% | viability, T/C [11] 112% | viability, T/C [12] 117% | viability, T/C [13] 90.3% | viability, T/C [14] 99.8% | viability, T/C [15] 111% | viability, T/C [16] 110% | viability, T/C [17] 104% | viability, T/C [18] 108% | viability, T/C [19] 111% | viability, T/C [20] 102% | viability, T/C [21] 114% | viability, T/C [22] 89.9% | viability, T/C [23] 108% | viability, T/C [24] 107% | viability, T/C [25] 110% | viability, T/C [26] 99.5% | viability, T/C [27] 101% | viability, T/C [28] 93.8% | viability, T/C [29] 122% | viability, T/C [30] 115% | viability, T/C [31] 96.8% | viability, T/C [32] 98.3% | viability, T/C [33] 97% | viability, T/C [34] 96.8% | viability, T/C [35] 104% | viability, T/C [36] 126%
> 10 µM: IC50 (second compound 0.0316 µM) | IC50 (second compound 0.1 µM) | IC50 (second compound 0.316 µM) | IC50 (second compound 1 µM) | IC50 (second compound 3.16 µM) | IC50 (second compound 10 µM)

Cn1ncnc1[C@H]1c2n[nH]c(=O)c3cc(F)cc(c23)N[C@@H]1c1ccc(F)cc1 + COC1C(OC(N)=O)C(O)C(Oc2ccc3c(O)c(NC(=O)c4ccc(O)c(CC=C(C)C)c4)c(=O)oc3c2C)OC1(C)C
> 0.1 µM: IC50 (second compound 0.0316 µM) | IC50 (second compound 0.1 µM) | IC50 (second compound 0.316 µM) | IC50 (second compound 1 µM) | IC50 (second compound 3.16 µM) | IC50 (second compound 10 µM)
inactive: viability, T/C (second compound 0.0316 µM, first compound 0.000316 µM) 126% | viability, T/C (second compound 0.0316 µM, first compound 0.001 µM) 108% | viability, T/C (second compound 0.0316 µM, first compound 0.00316 µM) 101% | viability, T/C (second compound 0.0316 µM, first compound 0.01 µM) 98.1% | viability, T/C [1] 103% | viability, T/C [2] 97.4% | viability, T/C (second compound 0.1 µM, first compound 0.000316 µM) 106% | viability, T/C (second compound 0.1 µM, first compound 0.001 µM) 122% | viability, T/C (second compound 0.1 µM, first compound 0.00316 µM) 92% | viability, T/C (second compound 0.1 µM, first compound 0.01 µM) 100% | viability, T/C [7] 118% | viability, T/C [8] 103% | viability, T/C (second compound 0.316 µM, first compound 0.000316 µM) 97.5% | viability, T/C (second compound 0.316 µM, first compound 0.001 µM) 81.7% | viability, T/C (second compound 0.316 µM, first compound 0.00316 µM) 85.4% | viability, T/C (second compound 0.316 µM, first compound 0.01 µM) 111% | viability, T/C [13] 102% | viability, T/C [14] 132% | viability, T/C (second compound 1 µM, first compound 0.000316 µM) 105% | viability, T/C (second compound 1 µM, first compound 0.001 µM) 111% | viability, T/C (second compound 1 µM, first compound 0.00316 µM) 111% | viability, T/C (second compound 1 µM, first compound 0.01 µM) 90.5% | viability, T/C [19] 118% | viability, T/C [20] 98.1% | viability, T/C (second compound 3.16 µM, first compound 0.000316 µM) 88.2% | viability, T/C (second compound 3.16 µM, first compound 0.001 µM) 106% | viability, T/C (second compound 3.16 µM, first compound 0.00316 µM) 92.1% | viability, T/C (second compound 3.16 µM, first compound 0.01 µM) 99.5% | viability, T/C [25] 107% | viability, T/C [26] 126% | viability, T/C (second compound 10 µM, first compound 0.000316 µM) 112% | viability, T/C (second compound 10 µM, first compound 0.001 µM) 98.5% | viability, T/C (second compound 10 µM, first compound 0.00316 µM) 104% | viability, T/C (second compound 10 µM, first compound 0.01 µM) 102% | viability, T/C [31] 105% | viability, T/C [32] 105%

CC(C)n1c(=O)n(C)c2cnc3cc(F)c(-c4ccc(OCCCN5CCCCC5)nc4)cc3c21 + COC1C(OC(N)=O)C(O)C(Oc2ccc3c(O)c(NC(=O)c4ccc(O)c(CC=C(C)C)c4)c(=O)oc3c2C)OC1(C)C
> 10 µM: IC50 (second compound 0.0316 µM) | IC50 (second compound 0.1 µM) | IC50 (second compound 0.316 µM) | IC50 (second compound 1 µM) | IC50 (second compound 3.16 µM) | IC50 (second compound 10 µM)
inactive: viability, T/C [1] 116% | viability, T/C [2] 125% | viability, T/C [3] 113% | viability, T/C [4] 104% | viability, T/C [5] 112% | viability, T/C [6] 120% | viability, T/C [7] 107% | viability, T/C [8] 116% | viability, T/C [9] 110% | viability, T/C [10] 104% | viability, T/C [11] 118% | viability, T/C [12] 103% | viability, T/C [13] 108% | viability, T/C [14] 93% | viability, T/C [15] 105% | viability, T/C [16] 108% | viability, T/C [17] 107% | viability, T/C [18] 89.6% | viability, T/C [19] 112% | viability, T/C [20] 88.4% | viability, T/C [21] 99.5% | viability, T/C [22] 106% | viability, T/C [23] 119% | viability, T/C [24] 78.4% | viability, T/C [25] 113% | viability, T/C [26] 114% | viability, T/C [27] 108% | viability, T/C [28] 114% | viability, T/C [29] 106% | viability, T/C [30] 101% | viability, T/C [31] 98.2% | viability, T/C [32] 104% | viability, T/C [33] 93.8% | viability, T/C [34] 99.2% | viability, T/C [35] 95.8% | viability, T/C [36] 98.8%
